Counter-ions that a name gives are not always drawn.
SMILES	melting point [°C]
O=C(NCC1CC1)c1ccc(-c2ccc3c(c2)CCN(CCN2CCCC2)C3=O)cc1 (as salt: hydrochloride) [Example 60, N-(cyclopropylmethyl)-4-[1-oxo-2-(2-pyrrolidin-1-ylethyl)-1,2,3,4-tetrahydroiso-quinolin-6-yl]benzamide]	216 to 218
CC(C)NC(=O)c1ccc(-c2ccc3c(c2)CCN(CCN2CCCC2)C3=O)cc1 (as salt: hydrochloride) [Example 61, N-isopropyl-4-[1-oxo-2-(2-pyrrolidin-1-ylethyl)-1,2,3,4-tetrahydroisoquinolin-6-yl]benzamide]	257 to 259
CCN(CC)C(=O)c1ccc(-c2ccc3c(c2)CCN(CCN2CCCC2)C3=O)cc1 (as salt: hydrochloride) [Example 62, N,N-diethyl-4-[1-oxo-2-(2-pyrrolidin-1-ylethyl)-1,2,3,4-tetrahydroisoquinolin-6-yl]benzamide]	177 to 178
O=C(NC1CCC1)c1ccc(-c2ccc3c(c2)CCN(CCN2CCCC2)C3=O)cc1 (as salt: hydrochloride) [Example 63, N-cyclobutyl-4-[1-oxo-2-(2-pyrrolidin-1-ylethyl)-1,2,3,4-tetrahydroisoquinolin-6-yl]benzamide]	255 to 258
O=C(c1ccc(-c2ccc3c(c2)CCN(CCN2CCCC2)C3=O)cc1)N1CCC1 (as salt: hydrochloride) [Example 64, 6-[4-(azetidin-1-ylcarbonyl)phenyl]-2-(2-pyrrolidin-1-ylethyl)-3,4-dihydroisoquinolin-1(2H)-one]	229 to 230
CCN(CC)C(=O)c1ccc(-c2ccc3c(c2)CCN(CCN2CCC[C@H]2C)C3=O)cc1 (as salt: hydrochloride) [Example 65, N,N-diethyl-4-(2-{2-[(2R)-2-methylpyrrolidin-1-yl]ethyl}-1-oxo-1,2,3,4-tetrahydroisoquinolin-6-yl)benzamide]	221 to 222
C[C@@H]1CCCN1CCN1CCc2cc(-c3ccc(C(=O)N4CCCC4)cc3)ccc2C1=O (as salt: hydrochloride) [Example 66, 2-{2-[(2R)-2-methylpyrrolidin-1-yl]ethyl}-6-[4-(pyrrolidin-1-ylcarbonyl)phenyl]-3,4-dihydroisoquinolin-1(2H)-one]	243 to 244
NC(=O)c1ccc(-c2ccc3c(c2)CCN(CCN2CCCC2)C3=O)cc1 (as salt: hydrochloride) [Example 67, 4-[1-oxo-2-(2-pyrrolidin-1-ylethyl)-1,2,3,4-tetrahydroisoquinolin-6-yl]benzamide]	268 to 270
O=C(NCCF)c1ccc(-c2ccc3c(c2)CCN(CCN2CCCC2)C3=O)cc1 (as salt: hydrochloride) [Example 68, N-(2-fluoroethyl)-4-[1-oxo-2-(2-pyrrolidin-1-ylethyl)-1,2,3,4-tetrahydroisoquinolin-6-yl]benzamide]	215 to 216
COCCNC(=O)c1ccc(-c2ccc3c(c2)CCN(CCN2CCCC2)C3=O)cc1 (as salt: hydrochloride) [Example 69, N-(2-methoxyethyl)-4-[1-oxo-2-(2-pyrrolidin-1-ylethyl)-1,2,3,4-tetrahydroisoquinolin-6-yl]benzamide]	178 to 180
CC(C)OCCNC(=O)c1ccc(-c2ccc3c(c2)CCN(CCN2CCCC2)C3=O)cc1 (as salt: hydrochloride) [Example 70, N-(2-isopropoxyethyl)-4-[1-oxo-2-(2-pyrrolidin-1-ylethyl)-1,2,3,4-tetrahydroisoquinolin-6-yl]benzamide]	164 to 166
O=C(NCCOc1ccccc1)c1ccc(-c2ccc3c(c2)CCN(CCN2CCCC2)C3=O)cc1 (as salt: hydrochloride) [Example 71, 4-[1-oxo-2-(2-pyrrolidin-1-ylethyl)-1,2,3,4-tetrahydroisoquinolin-6-yl]-N-(2-phenoxyethyl)-benzamide]	123 to 130
CCOCCNC(=O)c1ccc(-c2ccc3c(c2)CCN(CCN2CCCC2)C3=O)cc1 (as salt: hydrochloride) [Example 72, N-(2-ethoxyethyl)-4-[1-oxo-2-(2-pyrrolidin-1-ylethyl)-1,2,3,4-tetrahydroisoquinolin-6-yl]benzamide]	193 to 195
C[C@@H]1CCCN1CCN1CCc2cc(-c3ccc(C(=O)NCC4CC4)cc3)ccc2C1=O (as salt: hydrochloride) [Example 73, N-(cyclopropylmethyl)-4-(2-{2-[(2R)-2-methylpyrrolidin-1-yl]ethyl}-1-oxo-1,2,3,4-tetrahydroisoquinolin-6-yl)benzamide]	188 to 190
C[C@@H]1CCCN1CCN1CCc2cc(-c3ccc(C(=O)NC4CCC4)cc3)ccc2C1=O (as salt: hydrochloride) [Example 74, N-cyclobutyl-4-(2-{2-[(2R)-2-methylpyrrolidin-1-yl]ethyl}-1-oxo-1,2,3,4-tetrahydroisoquinolin-6-yl)benzamide]	210 to 211
CCNC(=O)c1ccc(-c2ccc3c(c2)CCN(CCN2CCC[C@H]2C)C3=O)cc1 (as salt: hydrochloride) [Example 75, N-ethyl-4-(2-{2-[(2R)-2-methylpyrrolidin-1-yl]ethyl}-1-oxo-1,2,3,4-tetrahydroisoquinolin-6-yl)benzamide]	228 to 230
C[C@@H]1CCCN1CCN1CCc2cc(-c3ccc(C(=O)NC4CC4)cc3)ccc2C1=O (as salt: hydrochloride) [Example 76, N-cyclopropyl-4-(2-{2-[(2R)-2-methylpyrrolidin-1-yl]ethyl}-1-oxo-1,2,3,4-tetrahydroisoquinolin-6-yl)benzamide]	255 to 257
CC(C)NC(=O)c1ccc(-c2ccc3c(c2)CCN(CCN2CCC[C@H]2C)C3=O)cc1 (as salt: hydrochloride) [Example 77, N-isopropyl-4-(2-{2-[(2R)-2-methylpyrrolidin-1-yl]ethyl}-1-oxo-1,2,3,4-tetrahydroisoquinolin-6-yl)benzamide]	188 to 189
CNC(=O)c1ccc(-c2ccc3c(c2)CCN(CCN2CCC[C@H]2C)C3=O)cc1 (as salt: hydrochloride) [Example 78, N-methyl-4-(2-{2-[(2R)-2-methylpyrrolidin-1-yl]ethyl}-1-oxo-1,2,3,4-tetrahydroisoquinolin-6-yl)benzamide]	258 to 260
O=C(c1ccc(-c2ccc3c(c2)CCN(CCN2CCCC2)C3=O)cc1)N1CCCCC1 (as salt: hydrochloride) [Example 79, 6-[4-(piperidin-1-ylcarbonyl)phenyl]-2-(2-pyrrolidin-1-ylethyl)-3,4-dihydroisoquinolin-1(2H)-one]	240 to 241
C[C@@H]1CCCN1CCN1CCc2cc(-c3ccc(C(=O)NC4CCCC4)cc3)ccc2C1=O (as salt: hydrochloride) [Example 80, N-cyclopentyl-4-(2-{2-[(2R)-2-methylpyrrolidin-1-yl]ethyl}-1-oxo-1,2,3,4-tetrahydroisoquinolin-6-yl)benzamide]	260 to 262
C[C@H]1CCCN1C(=O)c1ccc(-c2ccc3c(c2)CCN(CCN2CCCC2)C3=O)cc1 (as salt: hydrochloride) [Example 81, 6-(4-{[(2S)-2-methylpyrrolidin-1-yl]carbonyl}phenyl)-2-(2-pyrrolidin-1-ylethyl)-3,4-dihydroisoquinolin-1(2H)-one]	171 to 172
C[C@@H]1CCCN1C(=O)c1ccc(-c2ccc3c(c2)CCN(CCN2CCCC2)C3=O)cc1 (as salt: hydrochloride) [Example 82, 6-(4-{[(2R)-2-methylpyrrolidin-1-yl]carbonyl}phenyl)-2-(2-pyrrolidin-1-ylethyl)-3,4-dihydroisoquinolin-1(2H)-one]	170 to 171
CNC(=O)c1ccc(-c2ccc3c(c2)C(=O)N(CCN2CCC[C@H]2C)CC3)cc1 (as salt: hydrochloride) [Example 83, N-methyl-4-(2-{2-[(2R)-2-methylpyrrolidin-1-yl]ethyl}-1-oxo-1,2,3,4-tetrahydroiso-quinolin-7-yl)benzamide]	262 to 263
CC(C)NC(=O)c1ccc(-c2ccc3c(c2)C(=O)N(CCN2CCC[C@H]2C)CC3)cc1 (as salt: hydrochloride) [Example 85, N-isopropyl-4-(2-{2-[(2R)-2-methylpyrrolidin-1-yl]ethyl}-1-oxo-1,2,3,4-tetrahydroiso-quinolin-7-yl)benzamide]	248 to 250
C[C@@H]1CCCN1CCN1CCc2ccc(-c3ccc(C(=O)N4CCCC4)cc3)cc2C1=O (as salt: hydrochloride) [Example 86, 2-{2-[(2R)-2-methylpyrrolidin-1-yl]ethyl}-7-[4-(pyrrolidin-1-ylcarbonyl)phenyl]-3,4-dihydroisoquinolin-1(2H)-one]	214 to 215
CNC(=O)c1ccc(Oc2ccc3c(c2)CCN(CCN2CCCC2)C3=O)nc1 (as salt: hydrochloride) [Example 101, N-Methyl-6-(1-oxo-2-(2-(pyrrolidin-1-yl)ethyl)-1,2,3,4-tetrahydro-isoquinolin-6-yloxy)nicotinamide hydrochloride]	228 to 230
CON(C)C(=O)c1ccc(-c2ccc3c(c2)CCN(CCN2CCCC2)C3=O)cc1 (as salt: hydrochloride) [Example 102, N-methoxy-N-methyl-4-(1-oxo-2-(2-(pyrrolidin-1-yl)ethyl)-1,2,3,4-tetrahydroisoqui-nolin-6-yl)benzamide]	190 to 191
C[C@@H]1CCCN1CCN1CCc2cc(OCc3ccc(C#N)cc3)ccc2C1=O (as salt: hydrochloride) [Example 120, (R)-4-((2-(2-(2-Methylpyrrolidin-1-yl)ethyl)-1-oxo-1,2,3,4-tetra-hydroisoquinolin-6-yloxy)methyl)benzonitrile hydrochloride]	212 to 214
O=C(NCc1cccs1)c1ccc(-c2ccc3c(c2)CCN(CCN2CCCC2)C3=O)cc1 (as salt: hydrochloride) [Example 121, 4-[1-oxo-2-(2-pyrrolidin-1-ylethyl)-1,2,3,4-tetrahydroisoquinolin-6-yl]-N-(2-thienylmethyl)benzamide]	211 to 213.5

— patent US20090069300A1, “ISOQUINOLINYL AND ISOINDOLINYL DERIVATIVES AS HISTAMINE-3 ANTAGONISTS” (Wyeth, priority 2007, published 2009)
